According to patent US8741926B2, “Macrocyclic inhibitors of hepatitis C virus” (Tibotec Pharmaceuticals Ltd., priority 2005, dated 2014):

Legend:
[1] = tested on: HCV type 1b replicon in Huh-7 luc/neo (Huh-Luc) cells; assay: Replicon assay: inhibition of HCV RNA replication in Huh-Luc cells (luciferase); type: cell-based; details: Hepatitis C virus, Huh-7, 72 h, luciferase activity, incubation of three days
Method: The in vitro antiviral activity against HCV of the compounds of formula (I) was tested in a cellular HCV replicon system based on Lohmann et al. (1999) Science 285:110-113, with the further modifications described by Krieger et al. (2001) Journal of Virology 75: 4614-4624, which is further exemplified in the examples section. This model, while not a complete infection model for HCV, is widely accepted as the most robust and efficient model of autonomous HCV RNA replication currently available. […] It will be appreciated that it is important to distinguish between compounds that specifically interfere with HCV functions from those that exert cytotoxic or cytostatic effects in the HCV replicon model, and as a consequence cause a decrease in HCV RNA or linked reporter enzyme concentration. Assays are known in the field for the evaluation of cellular cytotoxicity based for example on the activity of mitochondrial enzymes using fluorogenic redox dyes such as resazurin. Furthermore, cellular counter screens exist for the evaluation of non-selective inhibition of linked reporter gene activity, such as firefly luciferase. Appropriate cell types can be equipped by stable transfection with a luciferase reporter gene whose expression is dependent on a constitutively active gene promoter, and such cells can be used as a counter-screen to eliminate non-selective inhibitors.
The compounds of formula (I) were examined for activity in the inhibition of HCV RNA replication in a cellular assay. […] The cellular assay was based on a bicistronic expression construct, as described by Lohmann et al. (1999) Science vol. 285 pp. 110-113 with modifications described by Krieger et al. (2001) Journal of Virology 75: 4614-4624, in a multi-target screening strategy. In essence, the method was as follows.
The assay utilized the stably transfected cell line Huh-7 luc/neo (hereafter referred to as Huh-Luc). This cell line harbors an RNA encoding a bicistronic expression construct comprising the wild type NS3-NS5B regions of HCV type 1b translated from an Internal Ribosome Entry Site (IRES) from encephalomyocarditis virus (EMCV), preceded by a reporter portion (FfL-luciferase), and a selectable marker portion (neo^R, neomycine phosphotransferase). The construct is bordered by 5′ and 3′ NTRs (non-translated regions) from HCV type 1b. Continued culture of the replicon cells in the presence of G418 (neo^R) is dependent on the replication of the HCV RNA. The stably transfected replicon cells that express HCV RNA, which replicates autonomously and to high levels, encoding inter alia luciferase, are used for screening the antiviral compounds.
The replicon cells were plated in 384 well plates in the presence of the test and control compounds which were added in various concentrations. Following an incubation of three days, HCV replication was measured by assaying luciferase activity (using standard luciferase assay substrates and reagents and a Perkin Elmer ViewLux™ ultraHTS microplate imager). Replicon cells in the control cultures have high luciferase expression in the absence of any inhibitor. The inhibitory activity of the compound on luciferase activity was monitored on the Huh-Luc cells, enabling a dose-response curve for each test compound.

[2] = target: HCV NS3/4A protease (Hepatitis C virus genotype 1a (isolate H77) (HCV), UniProt P27958); assay: Inhibition assay (enzymatic assay) of full-length NS3 protease with NS4A cofactor; type: biochemical
Method: [Landro, 1997 #Biochem 36 9340-9348]. […] The solutions were stored at −20° C. between measurements.
[Liu, 1999 Analytical Biochemistry 267 331-335].

[3] = In vivo effects of ritonavir on the oral pharmacokinetics of Compound nr. 47 in rat; details: male and female Sprague-Dawley rats, single oral 10 mg/kg Compound nr. 47, boosting with 10 mg/kg ritonavir about 30 minutes before, plasma
Method: Oral pharmacokinetics of Compound nr. 47 in male and female Sprague-Dawley rats after a single dose at 10 mg/kg, using a formulation in 50% PEG400/water and the influence of “boosting” with 10 mg/kg ritonavir were investigated.
Four male and four female Sprague-Dawley (SD)-rats (approx. body weight 200-250 g) were randomly divided into 2 groups of 2 males and females each (boosted and non-boosted) based on body weight. […] The animals were fasted shortly before the trial. Drinking water remained available ad libitum.
Rats from the non-boosted group received a single oral 10 mg/kg dose of Compound nr. 47, formulated as a 3 mg/ml 50% PEG400/water at pH 8. Rats from the boosted group received a single oral dose of ritonavir, about 30 minutes before single oral dosing with 10 mg/kg of Compound nr. 47. The drug formulations were administered by oral gavage.
From each rat, a 0.5 ml blood sample was collected at 0.5 h, 1 h, 2 h, 4 h and 8 h after dosing. Plasma concentrations were determined using HPLC-MS. Results are shown in the table 2 below, expressed as fold change in pharmacokinetic parameter of the boosted group as compared to the non-boosted group.

HCV NS3/4A protease, sequence (P27958 1027-1657): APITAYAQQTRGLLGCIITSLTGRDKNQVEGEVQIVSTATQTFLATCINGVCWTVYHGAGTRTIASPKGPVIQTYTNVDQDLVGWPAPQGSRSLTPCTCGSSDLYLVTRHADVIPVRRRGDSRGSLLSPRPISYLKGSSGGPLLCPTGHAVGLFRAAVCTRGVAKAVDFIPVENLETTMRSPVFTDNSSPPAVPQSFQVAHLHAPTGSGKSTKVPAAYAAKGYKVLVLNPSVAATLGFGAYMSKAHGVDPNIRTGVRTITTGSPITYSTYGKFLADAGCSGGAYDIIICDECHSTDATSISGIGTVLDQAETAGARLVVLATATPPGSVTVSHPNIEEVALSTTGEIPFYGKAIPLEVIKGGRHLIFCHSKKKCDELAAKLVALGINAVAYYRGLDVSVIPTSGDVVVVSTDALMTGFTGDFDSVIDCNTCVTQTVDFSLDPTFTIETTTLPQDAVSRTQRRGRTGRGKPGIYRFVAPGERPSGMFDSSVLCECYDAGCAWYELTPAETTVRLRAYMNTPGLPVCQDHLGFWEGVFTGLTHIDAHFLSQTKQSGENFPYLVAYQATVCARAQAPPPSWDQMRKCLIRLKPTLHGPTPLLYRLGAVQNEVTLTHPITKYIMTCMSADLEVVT

Question: Which EC50 [1] does the source give for `COc1ccc2c(O[C@@H]3C[C@H]4C(=O)N[C@]5(C(=O)NS(=O)(=O)C6CC6)C[C@H]5/C=C\CCCCN(C)C(=O)[C@@H]4C3)cc(-c3nc(C(C)C)cs3)nc2c1C` [Compound 47, N-[17-[2-(4-isopropylthiazole-2-yl)-7-methoxy-8-methylquinolin-4-yloxy]-13-methyl-2,14-dioxo-3,13-diazatricyclo[13.3.0.0^4,6]octadec-7-ene-4-carbonyl](cyclopropyl)sulfonamide] here?
Answer: Its EC50 is 0.00618 µM.

Question: What about the Ki [2] of the same compound?
Answer: Its Ki is 0.5 nM.

Question: And the “Cmax, fold change of the boosted group as compared to the non-boosted group” value [3]?
Answer: The value was 2.2 fold change.
